In one test the target is T1, Epac2 (Homo sapiens, UniProt Q8WZA2).
T1 sequence (Q8WZA2 1-867 isoform Q8WZA2-3): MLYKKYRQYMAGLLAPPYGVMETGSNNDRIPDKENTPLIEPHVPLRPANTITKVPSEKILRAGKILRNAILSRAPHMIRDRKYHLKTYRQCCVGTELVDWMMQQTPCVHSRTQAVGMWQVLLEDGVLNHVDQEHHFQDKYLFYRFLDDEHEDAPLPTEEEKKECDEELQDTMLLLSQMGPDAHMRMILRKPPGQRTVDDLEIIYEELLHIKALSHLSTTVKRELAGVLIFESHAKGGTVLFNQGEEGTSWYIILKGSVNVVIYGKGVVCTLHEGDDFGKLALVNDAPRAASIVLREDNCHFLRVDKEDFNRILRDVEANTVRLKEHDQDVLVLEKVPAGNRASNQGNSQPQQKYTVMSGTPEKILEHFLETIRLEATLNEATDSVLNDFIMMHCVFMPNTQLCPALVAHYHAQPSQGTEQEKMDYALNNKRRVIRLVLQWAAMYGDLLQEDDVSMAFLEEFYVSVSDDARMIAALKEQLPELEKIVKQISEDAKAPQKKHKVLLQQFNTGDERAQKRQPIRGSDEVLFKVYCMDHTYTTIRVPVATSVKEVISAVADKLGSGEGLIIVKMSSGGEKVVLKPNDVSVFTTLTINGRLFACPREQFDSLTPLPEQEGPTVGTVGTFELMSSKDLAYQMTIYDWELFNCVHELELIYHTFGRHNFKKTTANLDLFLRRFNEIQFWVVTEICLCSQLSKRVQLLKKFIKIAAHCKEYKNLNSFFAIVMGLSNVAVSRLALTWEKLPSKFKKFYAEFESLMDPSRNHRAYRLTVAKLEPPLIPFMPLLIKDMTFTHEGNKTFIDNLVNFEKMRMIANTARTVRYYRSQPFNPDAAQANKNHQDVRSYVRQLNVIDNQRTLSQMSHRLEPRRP
Kind of test: Epac GEF activity assay (b-GDP dissociation from recombinant Rap1), Epac2. The class given is biochemical. The source says:
FIGS. 4-8. […] Variations of relative fluorescence units (RFU) were studied as a function of time and fitted to single exponentials.

Another test addresses T2, Epac2B (Homo sapiens, UniProt Q8WZA2).
T2 construct: expressed in transfected cells; host or cells: HEK293
T2 sequence (Q8WZA2 1-867 isoform Q8WZA2-3): T1 sequence (Q8WZA2 1-867 isoform Q8WZA2-3)
In words: Rap1-GTP in HEK293 cells transfected with Epac2B. The class given is cell-based. The conditions noted are these: 20 μM, 30 min preincubation; S-220 50 μM, 10 min. The procedure: FIGS. 9-13. Amounts of Rap1-GTP (n=5 in each group, mean±S.E.M) were determined in HEK293 cells transfected with Epac1 (FIGS. 9-11), Epac2A (FIG. 12) or Epac2B (FIG. 13). Cells were preincubated or not with AM-001 (FIGS. 9, 12, and 13), AM-002 (FIG. 10) or AM-003 (FIG. 11) (20 μM, 30 min) and were then treated or not with 8-CPT-AM (10 μM for Epac1 activation and 20 μM for Epac2A activation) or S-220 (50 μM for Epac2B activation) for 10 min. ESI-05 was used as positive control of Epac2A inhibition. Representative immunoblots are shown. […], *[…], ***p<0.001, ****p<0.0001, versus indicated values, one way ANOVA, Bonferroni comparison test.
Human Embryonic Kidney cells line (HEK293): HEK293 cells were maintained is in minimal essential medium with FBS (10%) and penicillin-streptomycin (1%). All media, sera, and antibiotics used in cell culture were purchased from Invitrogen.
The human Epac1/Epac2 expression vector was a gift from Dr J. L. Bos. Cells were transfected using Lipofectamine 2000 (Invitrogen) according to the manufacturer's instructions. HEK293 cells were maintained in MEM with FBS (Foetal Bovine Serum; 10%) and penicillin-streptomycin (1%). All media, sera and antibiotics used in cell culture were purchased from Invitrogen (Cergy Pontoise, France). […]

As for `Nc1c(C(=O)Nc2ccc(F)cc2)sc2nc(-c3cccs3)cc(-c3ccccc3)c12` [AM-001, 3-amino-N-(4-fluorophenyl)-4-phenyl-6-(thiophen-2-yl)thieno[2,3-b]pyridine-2-carboxamide], the “effect on Epac2 GEF activity” value on Epac2 (30 μM Sp-8-CPT, 20 μM inhibitor) is reported as “no inhibitory effect”. Further, the IC50 on Epac2 (Sp-8-CPT at its EC50 for the isoform) and on Epac2 (saturating concentration of Sp-8-CPT) was > 1000 µM in each case. Moreover, on Epac2B, the “inhibition of the increase in Rap1-GTP induced by S-220” value was “ineffective”.

The record behind these values is patent US20210230179A1, “THIENO[2,3-B]PYRIDINE DERIVATIVES AS EPAC INHIBITORS AND THEIR PHARMACEUTICAL USES” (INSTITUT NATIONAL DE LA SANTE ET DE LA RECHERCHE MEDICALE …, priority 2018, published 2021).
